Measured values from ChEMBL document CHEMBL1201862, “PubChem BioAssay data set” (2004).
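Following 48 hours of exposure in 96-well plates, responses at five concentrations were used to interpolate endpoints linearly. GI50: concentration for 50% inhibition of growth.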 Calls of active or inactive are those of the source. No stated cut-off is given here; in the data, active = GI50 up to about 1.1 µM and inactive = higher.

Key:
Assay in all cases: NCI tumour cell line growth inhibition, 48 h
[1] = system: BT-549
[2] = system: CCRF-CEM
[3] = system: HCC 2998
[4] = system: Hs-578T
[5] = system: MDA-N
[6] = system: Malme-3M
[7] = system: NCI-H226
[8] = system: NCI-H460
[9] = system: OVCAR-3
[10] = system: OVCAR-5
[11] = system: RXF 393
[12] = system: SK-OV-3
[13] = system: SN12C
[14] = system: SNB-19
[15] = system: SNB-75
[16] = system: U-251
[17] = system: UACC-257
[18] = system: UACC-62
[19] = system: HOP-92

Measured: GI50

CCC(=O)NC(Nc1ccc(O)cc1)(C(F)(F)F)C(F)(F)F
inactive: [1] 28.1 µM | [2] 19.6 µM | [3] > 100 µM | [4] > 100 µM | [5] 17.9 µM | [6] 42.2 µM | [7] > 100 µM | [8] > 100 µM | [9] 40.6 µM | [10] > 100 µM | [11] 28.8 µM | [12] > 100 µM | [13] > 100 µM | [14] > 100 µM | [15] > 100 µM | [16] 73.6 µM | [17] 37.4 µM | [18] 40.1 µM

CC1(C)C=[N+]([O-])C(C)(C)N1O
inactive: [1] > 10 µM | [2] > 10 µM | [3] > 10 µM | [19] > 10 µM | [5] > 10 µM | [6] > 10 µM | [7] > 10 µM | [8] > 10 µM | [9] > 10 µM | [10] > 10 µM | [11] > 10 µM | [13] > 10 µM | [14] > 10 µM | [16] > 10 µM | [17] > 10 µM

O=C(O)c1cc([N+](=O)[O-])cc2c(=O)c3cnccc3[nH]c12
inactive: [1] > 100 µM | [2] > 100 µM | [3] > 100 µM | [4] > 100 µM | [5] > 100 µM | [6] > 100 µM | [7] > 100 µM | [8] > 100 µM | [9] > 100 µM | [10] > 100 µM | [11] > 100 µM | [12] > 100 µM | [13] > 100 µM | [14] > 100 µM | [15] > 100 µM | [16] > 100 µM | [18] 65.2 µM

COC(=O)c1ccc(/C=C2\Cc3ccccc3C2=O)cc1
inactive: [1] > 100 µM | [2] > 100 µM | [3] > 100 µM | [4] > 100 µM | [5] > 100 µM | [8] > 100 µM | [9] > 100 µM | [11] > 100 µM | [12] > 100 µM | [13] > 100 µM | [14] > 100 µM | [15] > 100 µM | [16] > 100 µM | [17] > 100 µM | [18] > 100 µM

Cc1ccc(S(=O)(=O)N2CCc3cc(O)c([N+](=O)[O-])cc32)cc1
inactive: [1] > 100 µM | [2] > 100 µM | [4] > 100 µM | [5] > 100 µM | [6] > 100 µM | [7] > 100 µM | [11] > 100 µM | [12] > 100 µM | [13] > 100 µM | [14] > 100 µM | [15] > 100 µM | [16] > 100 µM | [17] > 100 µM | [18] > 100 µM
